These results are taken from paper PMC11537999, “Identification of human pregnane X receptor antagonists utilizing a high-throughput screening platform” (Frontiers in Pharmacology, 2024).

The target in data set [1] is T1, hPXR (Homo sapiens, UniProt O75469).
T1 construct: expressed in transfected cells; provided by Dr. Taosheng Chen, St. Jude
T1 sequence (O75469 1-434): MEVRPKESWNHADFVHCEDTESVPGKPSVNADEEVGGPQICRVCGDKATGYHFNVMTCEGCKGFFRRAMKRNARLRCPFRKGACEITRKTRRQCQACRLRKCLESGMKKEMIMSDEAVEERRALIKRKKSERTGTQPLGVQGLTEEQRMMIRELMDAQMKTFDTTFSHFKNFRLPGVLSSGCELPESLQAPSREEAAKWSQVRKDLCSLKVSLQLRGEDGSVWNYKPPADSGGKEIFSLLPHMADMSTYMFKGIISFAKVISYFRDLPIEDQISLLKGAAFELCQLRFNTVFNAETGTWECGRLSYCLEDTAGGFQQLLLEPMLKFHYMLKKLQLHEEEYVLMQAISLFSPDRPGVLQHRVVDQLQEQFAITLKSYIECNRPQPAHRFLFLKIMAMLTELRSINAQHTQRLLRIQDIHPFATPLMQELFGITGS
The data set can be described thus: PXR luciferase reporter gene assay (qHTS antagonist mode, rifampicin co-treatment) in HepG2-CYP3A4-hPXR cells. It is filed as cell-based. To be noted: 2 μM rifampicin, used as treatment concentration in HepaRG cells. Here is the method:
HepG2 cells stably transfected with a CYP3A4-luc promoter construct and hPXR expression plasmid were provided by Dr. Taosheng Chen (Department of Chemical Biology and Therapeutics, St. Jude Children’s Research Hospital) ([Lin et al., 2008]). Cells were thawed in EMEM (ATCC, Rockville, Maryland), supplemented with 10% Hyclone FBS (GE Healthcare Life Sciences, Logan, Utah) and 100 U/mL of Penicillin and 100 μg/mL of Streptomycin (Invitrogen, Carlsbad, CA) and kept in an incubator at 37°C and 5% CO2. To culture these HepG2-CYP3A4-hPXR cells, 500 μg/mL of Geneticin (GIBCO, Gaithersburg, MD) was added to the thawing media.
(§1) HepG2-CYP3A4-hPXR cells were dispensed into tissue culture treated 1536-well white assay plates (Greiner Bio-One North America, Monroe, NC) using a Multidrop Combi (Thermo Fisher Scientific Inc., Waltham, Massachusetts) at 2,500 cells/4 µL/well. The cell suspension was prepared using new assay media, which contained phenol red-free DMEM (GIBCO), 5% charcoal/dextran-treated FBS (Invitrogen), 1 mM sodium pyruvate (Invitrogen), 2 mM L-Glutamine (Invitrogen), and 100 U/mL of Penicillin and 100 μg/mL of Streptomycin (Invitrogen). All plates were then incubated for 4 h in a 37°C and 5% CO2 incubator. […] In the primary screen, each compound was tested at 7 concentrations ranging from 46 μM to 1.5 nM. 1 μL of rifampicin, a known PXR agonist, was also co-treated in each well, generating a final concentration of 2 μM, using a Flying Reagent Dispenser (Aurora Discovery, Carlsbad, California). All assay plates were placed in an incubator at 37°C with 5% CO2 for 23 h. Following the incubation period, 1 µL of CellTiter-Fluor reagent (Promega, Madison, Wisconsin) was added to each well and all assay plates were placed back into the incubator set at 37°C and 5% CO2 for 1 h. Fluorescence intensity at 540 nm was measured following excitation at 405 nm using a ViewLux plate reader (Perkin Elmer, Shelton, Connecticut), in order to assess cell viability following treatment. Directly after the fluorescent read, 4 μL of ONE-Glo Luciferase reagent (Promega, Madison, Wisconsin) was added to each well using a Flying Reagent Dispenser, and plates were left to sit at room temperature for 30 min. The luminescence of each plate was then measured using the ViewLux plate reader and data were expressed as relative luminescence units. Gross assay performance was assessed by calculating quality metrics, such as coefficient of variance (CV), signal-to-background ratio (S/B), and Z′ factor, a measure of statistical effect size frequently used to judge whether an assay can be scaled up to a large high-throughput screen ([Zhang et al., 1999]).
Data analysis was completed using a previously described protocol ([Huang et al., 2016]). […] Normalized percent activity for all test compounds was determined using the following equation: % activity = [(V compound - V DMSO)/(V DMSO–V pos)] × 100, where V compound denotes the compound well values, V pos denotes the median value of the positive control wells, and V DMSO denotes the median value of the DMSO-only wells. Following normalization, data points were corrected using DMSO-only plates included at the beginning and end of the compound plate stack using an in-house pattern correction algorithm in order to remove background patterns, as well as other small abnormalities within the dataset ([Southall et al., 2009]). […] Efficacy is then [a inf - a 0 ]. a=a0+ainf−a0 c^n/k^n+c^n
Curve class was further converted to curve rank by combining each class with efficacy, such that good quality, efficacious curves are assigned large absolute curve rank values. […] The activity outcome was based on the PXR antagonist readout activity and a cell viability counter screen.
Background: Reporter assays use an easily measured gene product as a stand-in for the process of interest.

Data set [2] has as its target T1, hPXR. The data set can be described thus: Pharmacological inhibition (IC50 shift) assay with varying rifampicin in HepG2-CYP3A4-hPXR cells. It is filed as cell-based. Conditions: for shift in IC50 values with increasing rifampicin (in words): 5 μM, 7.5 µM or 10 µM rifampicin; for decrease in potency: co-treated with 2 µM versus 10 µM rifampicin; for IC50: triplicate. As to the method:
as §1
Each curve was co-treated with 5 μM RIF, 7.5 μM RIF, or 10 μM RIF (a well-known PXR agonist) to determine pharmacological activity. […] Each curve was generated from a combination of all data points together.

As usually defined, the IC50 is the midpoint of a concentration-inhibition curve.

The structures appear in SMILES notation.

As to `COc1cc(-c2cn(C3CCc4c(F)cccc4N(CC(F)(F)F)C3=O)nn2)ccc1-n1cnc(C)c1` (stereo not drawn) [GSM2], the “IC70 values from the original NPACT screen” value on hPXR [1] is on record as 4 µM. For the same molecule, the “shift in IC50 values with increasing rifampicin (in words)” value at hPXR [2] is given as “generated a shift in IC50 values”. On hPXR [2], the decrease in potency entry is listed as “more than 2 fold”. For the same molecule, the IC50 at hPXR [2] (co-treated with 5 μM RIF) came out at 1.6 µM; at hPXR [2] (co-treated with 7.5 μM RIF), 3.32 µM; at hPXR [2] (co-treated with 10 μM RIF), 5.46 µM.
For `CC(=O)O[C@H]1C[C@@]2(C)[C@@H](C[C@@H](O)[C@H]3[C@@]4(C)CC[C@@H](O)[C@@H](C)[C@@H]4CC[C@@]32C)/C1=C(\CCC=C(C)C)C(=O)O` [fusidic acid], the “IC70 values from the original NPACT screen” value on hPXR [1] came out at 5 µM. Also, the “shift in IC50 values with increasing rifampicin (in words)” value at hPXR [2] is recorded as “generated a shift in IC50 values”. Moreover, the decrease in potency entry on hPXR [2] is listed as “more than 2 fold”. For the same molecule, the results for the IC50 on hPXR [2] (co-treated with 5 μM RIF), at hPXR [2] (co-treated with 7.5 μM RIF) and at hPXR [2] (co-treated with 10 μM RIF) were 3.46 µM, 4.57 µM and 7.76 µM, respectively.
